The values below come from US20090042783A1, “APO E ANALOGS AND METHODS FOR THEIR USE” (priority 2004, published 2009).

A short description of series [1]: Maximum tolerated dose, tail vein injection. As to conditions: mouse, in vivo, intravenous, highest dose with death of no mice in 24 hours, tail vein. Here is the method: (§1) Candidate compounds are then be screened in our closed head injury model of traumatic brain injury by intravenous dosing at 30 minutes post injury. Novel compounds are initially tested at one half their maximum tolerated dose (0.5×MTD). The maximum tolerated dose (MTD) is the dose of peptide given in a tail vein injection that results in no death of mice. Death is defined as a complete lack of breathing and complete unresponsiveness to external stimuli such as tail pinch and/or toe pinch for a period of 10 or more minutes. Animals are given an initial dose of 1 mg/kg of peptide analog or non-peptide mimetic and observed continuously for 15 minutes and then at 15 minute intervals for 2 hours and then at 1 hour intervals for 4 hours more. Animals are also observed at 24 hours post injection.
(§2) The maximum tolerated dose is the maximum dose at which no animals die at any of these observation times. As an example of this procedure, the MTD is determined empirically by initially dosing groups of 3 mice at 1 mg/kg. If this dose is tolerated, then another group of 3 mice is dosed at 3 mg/kg. If this dose is tolerated, then another group of 3 mice is dosed at 9 mg/kg, etc. If, for example, 9 mg/kg is not tolerated because 1 or more animal died, then doses in-between 3 mg/kg and 9 mg/kg are investigated until the MTD is found. Once the MTD is empirically determined, it is confirmed in another group of 7 mice for a total of 10 mice being tested at the MTD and all of which must not die to confirm that this is the MTD.

The next series has as its system mice. In words: Maximum tolerated dose, tail vein injection. As to conditions: mouse, in vivo. On the procedure: as §1, §2
Series [2] has as its system RAW 264.7 macrophages. In words: NO production and iNOS mRNA in C. rodentium-stimulated macrophages. The format is cell-based, mouse. As to conditions: C. rodentium lysates; COG1410 2 μM, COG4502 0.1-5 μM. From the text: RAW 264.7 cells were stimulated with French-pressed lysates of C. rodentium at a multiplicity of infection of 100. […] B, RT-PCR for iNOS.
We used bacterial lysates to more closely mimic the bacterial products to which lamina propria macrophages are likely to be exposed.

For series [3] the following is noted: mouse, in vivo.
From the text: We have employed a similar LC/MS procedure to identify fragments of COG1410 that may arise by degradation processes.
Series [4] concerns RAW 264.7 macrophages.
A further series in a line: in vivo. The note with it: male, C57B1/6, mouse, 0.4 mg/kg.
Series [5] concerns mice with traumatic brain injury. In words: Closed head injury model of traumatic brain injury (rotorod, Morris Water Maze). (In general: The rotarod test checks motor coordination on a turning rod.)
Method: C57Bl/6J male mice (The Jackson Laboratory, ME), 12-16 weeks of age and weighing 24-32 g, are used for all experiments. Anesthesia is first induced with isoflurane in 30% O2/balance N2. The trachea is intubated and the lungs mechanically ventilated with 1.6% isoflurane in 30% O2/balance N2. Temperature is monitored with a rectal probe and maintained at 36.5° C. with a heat lamp. The right internal jugular vein is cannulated with silicone catheter. […] Intubated animals are then placed prone on a molded acrylic cast (FIG. 6A). […] The scalp is incised and the skull exposed. A concave 3 mm metallic disc is secured to the skull surface (with the concave surface in juxtaposition to the skull) by an adhesive. […] The disc is placed directly midline just caudal to bregma (FIG. 6B). […] The mice are positioned in a stereotactic frame. Although the stereotactactic frame helps to stabilize the animal and exactly calibrate the vertical displacement on impact (3 mm), ear bars are not used due to a much higher rate of skull fracture (or brainstem injury if the head rotates around the axis of the ear bars during impact). The piston is discharged at 6.8±0.2 m/s so as to impact the skull in the acrylic mold to move a maximum of approximately 3 mm (FIG. 6C). Inspired isoflurane is decreased to 0.7% immediately after impact. The scalp was infiltrated with lidocaine and closed with suture. Ophthalmic ointment was applied to the eyes for protection. The incidence of skull fracture is low (approximately 10%), as the metal disk helps to diffuse the impact, and the absence of ear bar fixation allows for displacement of the entire head. Mice were excluded if a depressed skull fracture was observed (incidence of approximately 10%). The animals are allowed to recover spontaneous ventilation then extubated. […] In these mice, arterial blood pressure, blood gas and glucose measurement at baseline, immediately after injury, and 15 minutes after injury are monitored during the recovery period.
Briefly, baseline performance on rotorod is established before the mice are intubated, the skin over the scalp reflected and a controlled cortical impact from a pneumatic impactor given on the midline. The skin is closed with surgical clips and the animals are constantly monitored until awake from anesthesia and then hourly for the next 4 hours. […] Performance on rotorod is tested at 24 hours post impaction and then every day for 5 days and data is presented as described. Groups of 12 mice are used for each compound at 0.5×MTD. […] Novel peptides and non-peptide analogs are also given by tail vein injection.
Daily Rotarod (RR) testing was used to assess short term motor and cerebellar deficit following head injury (Hamm et al., 1994). Mice were held by their tails and placed on the RR facing the wall by using gentle swinging motion while running in a constant speed mode.

Non-standard residues stand in square brackets, D forms with d. Residues, ends and D or L forms follow the SMILES beside them. Aib = CC(C)(N)C(=O)O

The IC50 is the concentration that inhibits the measured activity by half. Broadly, the MTD is the highest dose tested that stayed within the study's limit of toxicity. The low end stands for a narrow tolerated range, the high end for a wide tolerated range. The half-life is how long it takes for the measured level to halve. With `CC(=O)N[C@@H](C)C(=O)N[C@@H](CO)C(=O)NC(C)(C)C(=O)N[C@@H](CC(C)C)C(=O)N[C@@H](CCCNC(=N)N)C(=O)N[C@@H](CCCCN)C(=O)N[C@@H](CC(C)C)C(=O)NC(C)(C)C(=O)N[C@@H](CCCCN)C(=O)N[C@@H](CCCNC(=N)N)C(=O)N[C@@H](CC(C)C)C(=O)N[C@@H](CC(C)C)C(N)=O` [COG1410, Ac-AS-Aib-LRKL-Aib-KRLL-NH2] (Ac-AS[Aib]LRKL[Aib]KRLL-NH2), in the series with BV2 microglial cells (Table 2, preliminary data), the “Biologic Activity relative to COG133” value is listed as greater than 5x x COG133. The concentration for half-maximal inhibition (IC50) in the series with BV2 microglial cells (read-out: IC50, inhibition of nitric oxide release, BV2 cells, LPS for 40 hours, approximate) is roughly 2000 nM. Moreover, the MTD at 24 h in series [1] was 8 mg/kg. In addition, the “Therapeutic Index (ratio of the MTD to the MED)” value in the series on mice is 26. The “NO production (nitrite levels) in macrophage supernatants” value with RAW 264.7 macrophages [2] is “inhibition of NO production”. For the same compound, the “Major metabolite in plasma” value in series [3] was “acetyl-AS-Aib-LRKL-Aib-KR”. The “Concentration at which cell toxicity was noted” value with RAW 264.7 macrophages [4] was no less than 5 µM. The same compound displayed a half-life in “in vivo” of 2 min. Further, the “Neuroprotection (rotorod) when administered 120 minutes after TBI” value in series [5] (120 minutes after TBI, vs saline) was “neuroprotective”. In addition, in series [5] (lowest dose with statistically significant improvement vs vehicle, preliminary), the “Minimum effective dose (MED)” value turned out to be 0.3 mg/kg. In series [5] (mouse, in vivo), the “Gain in therapeutic window as compared to COG133” value is listed as 4 fold.
